EP0514268A1, “Substituted amino acid azetidinyl pyridone derivatives, their preparation and use as medicines” (LABORATORIOS DEL DR. ESTEVE, S.A., priority 1991, dated 1992)
Converted amounts (≈) assume the structure as drawn.

How the values were obtained:
Test in all cases: Antimicrobial activity, agar dilution
[1] = tested on: Strep. faecalis ATCC 10541; format: cell-based, Streptococcus faecalis; settings: Enterococcus faecalis, ATCC10541, 20 h, Agar Dextrose dilutions, 37°C, 20 heures, read-out: Activité pharmacologique antimicrobienne (concentrations)
Description: (§1) L'activité pharmacologique antimicrobienne de ces composés a été étudiée selon les références exposées ci-dessous.
(§2) Activité pharmacologique antimicrobienne : G.L. Daquet et Y.A. Chabbect, techniques en bactériologie, Vol. 3, Flammarion Médecine-Sciences, Paris 1972, et W.B. Hugo et A.D. Rusell, Pharmaceutical Microbiology, Blackwell Scientific Publications, London, 1977.
(§3) Milieu de culture et solvant : Agar d'antibiotiques n° 1 (Oxoid CM 327) Bouillon de triptone-soja (Oxoid CM 129) Solution Physiologique Ringer 1/4 (Oxoid BR 52) Agar Dextrose (BBL 11165)
(§4) Microorganismes : "Bacillus subtilis" ATCC 6633 "Citrobacter freundii" ATCC 112606 "Enterobacter aerogenes" ATCC 15038 "Enterobacter cloacae" ATCC 23355 "Bacillus cereus" ATCC 1178 "Escherichia coli" ATCC 10799 "Escherichia coli" ATCC 23559 "Klebsiella pneumoniae" ATCC 10031 "Proteus vulgaris" ATCC 8427 "Morg. morganii" ATCC 8019 "Pseudomonas aeruginosa" ATCC 9721 "Pseudomonas aeruginosa" ATCC 10145 "Salmonella typhimurium" ATCC 14028 "Salmonella typhimurium" ATCC 6539 "Serratia marcescens" ATCC 13880 "Shigella flexnerii" ATCC 12022 "Staphylococcusepidermis" ATCC 155-1 "Staphylococcus aureus" ATCC 25178 "Streptococcus faecalis" ATCC 10541.
(§5) Chacun des microorganismes est ensemencé par strie dans des tubes d'Agar d'antibiotiques n° 1, et mis en incubation pendant 20 heures à 37°C. Ensuite, on prend une anse de culture, on ensemence dans un bouillon de Triptone-soja et on incube pendant 20 heures à 37°C. On dilue à 1/4 la culture obtenue avec une solution physiologique Ringer, de façon à obtenir une suspension normalisée de […] pour chaque organisme.
(§6) A partir d'une solution de 100 µg/ml, chaque produit est dilué dans l'Agar Dextrose (préalablement fondu et maintenu à 50°C) par dilutions successives de façon à obtenir les concentrations suivantes : 64-32-16-8-4-2-1-0,5-0,25-0,125 µg de dérivé/ml du milieu.
(§7) Postérieurement, chaque concentration de chaque produit est répartie dans des boîtes de Petri de 10 cm de diamètre, à raison de 10 ml de milieu par boîte et autant de boîtes que de microorganismes à tester.
(§8) Une fois le milieu refroidi, les boîtes sont ensemencées avec les inoculations à raison de 0,4 ml d'inoculation par boîte. On les étend avec une anse de Driglasky et on recueille le surnageant. Les boîtes ensemencées sont incubées à 37°C pendant 20 heures.
(§9) Les résultats obtenus sont décrits dans les tableaux suivants. Les concentrations sont données en µg/ml.

[2] = tested on: Kleb. pneumoniae ATCC 10031; format: cell-based, Klebsiella pneumoniae; settings: Klebsiella pneumoniae, ATCC10031, 20 h, Agar Dextrose dilutions, 37°C, 20 heures, read-out: Activité pharmacologique antimicrobienne (concentrations)
Description: as §1, §2, §3, §4, §5, §6, §7, §8, §9

Staph. aureus ATCC 25178 = format: cell-based, Staphylococcus aureus; settings: Staphylococcus aureus, ATCC25178, 20 h, Agar Dextrose dilutions, 37°C, 20 heures, read-out: Activité pharmacologique antimicrobienne (concentrations)
Description: as §1, §2, §3, §4, §5, §6, §7, §8, §9

[3] = tested on: Citr. freundii ATCC 11606; format: cell-based, Citrobacter freundii; settings: Citrobacter freundii, ATCC11606, 20 h, Agar Dextrose dilutions, 37°C, 20 heures, read-out: Activité pharmacologique antimicrobienne (concentrations)
Description: as §1, §2, §3, §4, §5, §6, §7, §8, §9

[4] = tested on: Staph. epidermidis ATCC 155-1; format: cell-based; settings: Staphylococcus epidermidis, ATCC155, 20 h, Agar Dextrose dilutions, 37°C, 20 heures, read-out: Activité pharmacologique antimicrobienne (concentrations)
Description: as §1, §2, §3, §4, §5, §6, §7, §8, §9

[5] = tested on: Shigella flexnerii ATCC 12022; format: cell-based; settings: ATCC12022, 20 h, Agar Dextrose dilutions, 37°C, 20 heures, read-out: Activité pharmacologique antimicrobienne (concentrations)
Description: as §1, §2, §3, §4, §5, §6, §7, §8, §9

[6] = tested on: Bacillus cereus ATCC 11778; format: cell-based; settings: Bacillus cereus, ATCC11778, 20 h, Agar Dextrose dilutions, 37°C, 20 heures, read-out: Activité pharmacologique antimicrobienne (concentrations)
Description: as §1, §2, §3, §4, §5, §6, §7, §8, §9

Ps. aeruginosa ATCC 9721 = format: cell-based; settings: Pseudomonas aeruginosa, ATCC9721, 20 h, Agar Dextrose dilutions, 37°C, 20 heures, read-out: Activité pharmacologique antimicrobienne (concentrations)
Description: as §1, §2, §3, §4, §5, §6, §7, §8, §9

[7] = tested on: Escherichia coli ATCC 23559; format: cell-based; settings: Escherichia coli, ATCC23559, 20 h, Agar Dextrose dilutions, 37°C, 20 heures, read-out: Activité pharmacologique antimicrobienne (concentrations)
Description: as §1, §2, §3, §4, §5, §6, §7, §8, §9

[8] = tested on: Escherichia coli ATCC 10799; format: cell-based; settings: Escherichia coli, ATCC10799, 20 h, Agar Dextrose dilutions, 37°C, 20 heures, read-out: Activité pharmacologique antimicrobienne (concentrations)
Description: as §1, §2, §3, §4, §5, §6, §7, §8, §9

Morg. morganii ATCC 8019 = format: cell-based; settings: Morganella morganii, ATCC8019, 20 h, Agar Dextrose dilutions, 37°C, 20 heures, read-out: Activité pharmacologique antimicrobienne (concentrations)
Description: as §1, §2, §3, §4, §5, §6, §7, §8, §9

Sal. typhi ATCC 6539 = format: cell-based; settings: Salmonella enterica, 20 h, read-out: Activité pharmacologique antimicrobienne (concentrations)
Description: as §1, §2, §3, §4, §5, §6, §7, §8, §9

[9] = tested on: Proteus vulgaris ATCC 8427; format: cell-based; settings: Proteus vulgaris, ATCC8427, 20 h, Agar Dextrose dilutions, 37°C, 20 heures, read-out: Activité pharmacologique antimicrobienne (concentrations)
Description: as §1, §2, §3, §4, §5, §6, §7, §8, §9

[10] = tested on: Ps. aeruginosa ATCC 10145; format: cell-based; settings: Pseudomonas aeruginosa, ATCC10145, 20 h, Agar Dextrose dilutions, 37°C, 20 heures, read-out: Activité pharmacologique antimicrobienne (concentrations)
Description: as §1, §2, §3, §4, §5, §6, §7, §8, §9

[11] = tested on: Bacillus subtilis ATCC 6633; format: cell-based; settings: ATCC6633, 20 h, Agar Dextrose dilutions, 37°C, 20 heures, read-out: Activité pharmacologique antimicrobienne (concentrations)
Description: as §1, §2, §3, §4, §5, §6, §7, §8, §9

[12] = tested on: Serr. marcescens ATCC 13880; format: cell-based, Serratia marcescens; settings: Serratia marcescens, ATCC13880, 20 h, Agar Dextrose dilutions, 37°C, 20 heures, read-out: Activité pharmacologique antimicrobienne (concentrations)
Description: as §1, §2, §3, §4, §5, §6, §7, §8, §9

[13] = tested on: Sal. typhimurium ATCC 14028; format: cell-based, Salmonella typhimurium; settings: Salmonella enterica, 20 h, Agar Dextrose dilutions, 37°C, 20 heures, read-out: Activité pharmacologique antimicrobienne (concentrations)
Description: as §1, §2, §3, §4, §5, §6, §7, §8, §9

[14] = tested on: Ent. aerogenes ATCC 15038; format: cell-based, Enterobacter aerogenes; settings: Klebsiella aerogenes, ATCC15038, 20 h, Agar Dextrose dilutions, 37°C, 20 heures, read-out: Activité pharmacologique antimicrobienne (concentrations)
Description: as §1, §2, §3, §4, §5, §6, §7, §8, §9

Ent. cloacae ATCC 23355 = format: cell-based, Enterobacter cloacae; settings: Enterobacter cloacae, ATCC23355, 20 h, Agar Dextrose dilutions, 37°C, 20 heures, read-out: Activité pharmacologique antimicrobienne (concentrations)
Description: as §1, §2, §3, §4, §5, §6, §7, §8, §9

| SMILES | MIC [1] [µg/mL] | MIC [2] [µg/mL] | MIC (Staph. aureus ATCC 25178) [µg/mL] | MIC [3] [µg/mL] | MIC [4] [µg/mL] | MIC [5] [µg/mL] | MIC [6] [µg/mL] | MIC (Ps. aeruginosa ATCC 9721) [µg/mL] | MIC [7] [µg/mL] | MIC [8] [µg/mL] | MIC (Morg. morganii ATCC 8019) [µg/mL] | MIC (Sal. typhi ATCC 6539) [µg/mL] | MIC [9] [µg/mL] | MIC [10] [µg/mL] | MIC [11] [µg/mL] | MIC [12] [µg/mL] | MIC [13] [µg/mL] | MIC [14] [µg/mL] | MIC (Ent. cloacae ATCC 23355) [µg/mL] |
| --- | --- | --- | --- | --- | --- | --- | --- | --- | --- | --- | --- | --- | --- | --- | --- | --- | --- | --- | --- |
| CCC[C@H](N)C(=O)NC1CN(c2nc3c(cc2F)c(=O)c(C(=O)O)cn3-c2ccc(F)cc2F)C1 [Exemple 4bN] | 4 (≈ 8.17 µM) | 0.12 (≈ 0.245 µM) | 4 (≈ 8.17 µM) | 1 (≈ 2.04 µM) | 2 (≈ 4.09 µM) | 0.12 (≈ 0.245 µM) | 0.5 (≈ 1.02 µM) | 4 (≈ 8.17 µM) | 0.25 (≈ 0.511 µM) | 2 (≈ 4.09 µM) | 2 (≈ 4.09 µM) | 1 (≈ 2.04 µM) | 4 (≈ 8.17 µM) | 16 (≈ 32.7 µM) | 0.25 (≈ 0.511 µM) | 2 (≈ 4.09 µM) | 1 (≈ 2.04 µM) | 1 (≈ 2.04 µM) | 0.5 (≈ 1.02 µM) |
| C[C@@H](N)C(=O)NC1(C)CN(c2c(F)cc3c(=O)c(C(=O)O)cn(C4CC4)c3c2F)C1 [Exemple 4ca, chlorhydratede l'acide 7-(3-méthyl-3-D-Ala-amino-1-azétidinyl)-1-cyclopropyl-6,8-difluoro-1,4-dihydro-4-oxo-3-quinoléinecarboxylique] | 8 | 0.25 | 0.5 | 1 | 0.5 | 0.25 | 1 | 4 | 0.5 | 1 | 1 | 0.5 | 2 | 16 | 0.25 | 2 | 1 | 1 | 0.5 |
